Source: patent US20260098008A1, “COVALENT, CHEMOGENETIC ACTIVATORS FOR K2P POTASSIUM CHANNELS AND USES THEREOF” (THE REGENTS OF THE UNIVERSITY OF CALIFORNIA, priority 2022, published 2026)
Substitutions are numbered along the chain they refer to.

Experiments:
Type in all cases: cell-based
[1] = biological target: T1, CG*-CG* tandem K2P2.1 (TREK-1) (Mus musculus, UniProt P97438, S146C); test: TEVC in Xenopus oocytes, tandem channels; settings: 20 μM, sequential application
T1 construct: expressed in transfected cells; host or cells: Xenopus laevis oocytes injected with mRNA
T1 sequence (P97438 1-411 isoform P97438-2 S131C) 1: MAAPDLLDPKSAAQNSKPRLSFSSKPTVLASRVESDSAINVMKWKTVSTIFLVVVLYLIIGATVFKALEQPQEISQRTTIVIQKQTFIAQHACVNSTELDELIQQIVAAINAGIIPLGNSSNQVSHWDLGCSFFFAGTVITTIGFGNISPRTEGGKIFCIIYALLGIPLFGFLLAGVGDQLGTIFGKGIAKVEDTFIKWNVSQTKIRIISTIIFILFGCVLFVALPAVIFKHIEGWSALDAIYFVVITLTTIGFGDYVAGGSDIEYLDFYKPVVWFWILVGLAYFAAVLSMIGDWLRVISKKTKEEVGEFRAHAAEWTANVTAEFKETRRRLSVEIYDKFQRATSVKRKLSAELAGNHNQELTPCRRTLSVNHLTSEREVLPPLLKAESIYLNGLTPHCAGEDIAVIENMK
T1 sequence (P97438 1-411 isoform P97438-2 S131C) 2: T1 sequence (P97438 1-411 isoform P97438-2 S131C) 1
Excerpt: (§1) Mouse K2P2.1 (TREK-1) (Genbank accession number: NP_034737.2), mouse K2P10.1 (TREK-2) (NM_001316665.1), mouse K2P4.1 (TRAAK) (NM_008431.3), human K2P4.1 (TRAAK) (NM_033310.2) and mouse K2P18.1(TRESK) (NM_207261.3) were used for this study. Point mutations were introduced by site-directed mutagenesis using custom primers and confirmed by sequencing before use. For studies using Xenopus oocytes, K2P channels were subcloned into a previously reported pGEMHE/pMO vector (46). For expression in HEK293 cells, mouse K2P2.1 (TREK-1) and mutants were expressed from a previously described pIRES2-EGFP vector in HEK293 cells (46,47). K2P2.1 (TREK-1) tandems were constructed by connecting the open reading frames for the individual subunits with a linker encoding the […] (SEQ ID NO: 19) sequence. Tandems used for HEK293 cells included an N-terminal HA tag ([…] (SEQ ID NO: 20)) on the first subunit.
(§2) Xenopus laevis oocytes were harvested according to UCSF IACUC Protocol AN129690 and digested using collagenase (Worthington Biochemical Corporation, #LS004183, 0.8-1.0 mg/mL) in Ca^21-free ND96 (96 mM NaCl, 2 mM KCl, 3.8 mM MgCl2, 5 mM HEPES pH 7.4) immediately post-harvest, as previously reported (31,33). Oocytes were maintained at 18° C. in ND96 (96 mM NaCl, 2 mM KCl, 1.8 mM CaCl2, 2 mM MgCl2, 5 mM HEPES pH 7.4) supplemented with antibiotics (100 units mL^−1 penicillin, 100 μg mL^−1 streptomycin, 50 μg mL^−1 gentimycin) and used for experiments within one week of harvest.
(§3) Defolliculated stage V-VI oocytes were microinjected with 0.5-36 ng mRNA and currents were recorded within 16-48 h hours of injection.
(§4) For recordings, oocytes were impaled with borosilicate recording microelectrodes (0.4-2.0 MΩ resistance) backfilled with 3 M KCl and were subjected to constant perfusion of ND96 at a rate of 3 ml min^−1. Recording solutions containing K2P activators were prepared immediately prior to use from DMSO stocks (20-100 mM), with final DMSO concentrations of 0.1%. Currents were evoked from a −80 mV holding potential followed by a 300 ms ramp from −150 mV to +50 mV. Data were recorded using a GeneClamp 500B amplifier (MDS Analytical Technologies) controlled by pCLAMP8 software (Molecular Devices), and digitized at 1 kHz using Digidata 1332 Å digitizer (MDS Analytical Technologies). For each recording, control solution (ND96) was perfused over a single oocyte until current was stable before switching to solutions containing the test compounds at various concentrations. Representative traces and dose response plots were generated in GraphPad Prism 9.

[2] = biological target: T2, CG*-WT tandem K2P2.1 (TREK-1) (Mus musculus, UniProt P97438, S146C); test: TEVC in Xenopus oocytes, tandem channels; settings: 20 μM; for Fold-activation (I activator/I control): sequential application, Xenopus oocytes
T2 construct: expressed in transfected cells; host or cells: Xenopus laevis oocytes injected with mRNA
T2 sequence (P97438 1-411 isoform P97438-2 S131C): T1 sequence (P97438 1-411 isoform P97438-2 S131C) 1
T2 sequence (P97438 1-411 isoform P97438-2): T1 sequence (P97438 1-411 isoform P97438-2 S131C) 1 with C131S
Excerpt: as §1, §2, §3, §4

[3] = biological target: T3, WT-CG* tandem K2P2.1 (TREK-1) (Mus musculus, UniProt P97438, S146C); test: TEVC in Xenopus oocytes, tandem channels; settings: 20 μM; for Fold-activation (I activator/I control): sequential application, Xenopus oocytes
T3 construct: expressed in transfected cells; host or cells: Xenopus laevis oocytes injected with mRNA
T3 sequence (P97438 1-411 isoform P97438-2): T1 sequence (P97438 1-411 isoform P97438-2 S131C) 1 with C131S
T3 sequence (P97438 1-411 isoform P97438-2 S131C): T1 sequence (P97438 1-411 isoform P97438-2 S131C) 1
Excerpt: as §1, §2, §3, §4

K2P2.1 (TREK-1) = biological target: T4, K2P2.1 (TREK-1) (Mus musculus, UniProt P97438); test: Two-electrode voltage clamp (TEVC) in Xenopus oocytes; settings: for Fold-activation (I activator/I control): currents at 0 mV
T4 construct: expressed in transfected cells; host or cells: Xenopus laevis oocytes injected with mRNA (pGEMHE/pMO vector)
T4 sequence (P97438 1-411 isoform P97438-2): T1 sequence (P97438 1-411 isoform P97438-2 S131C) 1 with C131S
Excerpt: as §1, §2, §3, §4

Row | Fold-activation (I activator/I control) [1] [fold] | Fold-activation (I activator/I control) [2] [fold] | Fold-activation (I activator/I control) [3] [fold] | Reversibility of activation on washout (K2P2.1 (TREK-1); 20 μM, Xenopus oocytes) | Fold-activation (I activator/I control) (K2P2.1 (TREK-1); 20 μM, Xenopus oocytes) [fold] | Emax (IML335/Icontrol) (K2P2.1 (TREK-1); TEVC at 0 mV) [fold activation] | EC50 (K2P2.1 (TREK-1); TEVC at 0 mV, normalized to initial currents) [µM] | Fold-activation relative to activation of the CG*-CG* homodimer [2] | Fold-activation relative to activation of the CG*-CG* homodimer [3] | Fold-activation after compound washout (K2P2.1 (TREK-1); 20 μM, after washout, Xenopus oocytes) [fold] | SMILES
1 | 4.5±0.3 | 5.0±0.5 | 5.6 ± 0.4 | immediate reversal | 6.5 | 15.8±1.3 | 24 ± 4 | – | – | – | CS(=O)(=O)Nc1ccc(C(=O)NCc2ccc(Cl)cc2Cl)cc1 [ML335, reference compound]
2 | 14.7 ± 0.9 | 8.9 ± 1.1 | 11.5 ± 1.1 | – | 2.0±0.2 | – | – | 60-80% | 60-80% | 4.0 ± 0.6 | O=C(NCc1ccc(Cl)cc1Cl)c1ccc(N2C(=O)C=CC2=O)cc1 [CAT335]
